The source of these data is patent US20120322869A1, “ESTER COMPOUND AND USE THEREOF” (SUMITOMO CHEMICAL COMPANY, LIMITED, priority 2010, published 2012).

The test system of assay [1] is German cockroaches (Blattella germanica). The assay can be described thus: Spray knock-down test with 0.1% (w/v) oil solution on German cockroaches (Test Example 2). The conditions noted are these: adult Blattella germanica, 1.5 ml of 0.1% (w/v) oil solution sprayed. Format: in vivo. How it is done: Zero point one (0.1) part of the compound of the present inventions (1) and (2) was dissolved in 10 parts of isopropyl alcohol and the solution was mixed with 89.9 parts of deodorized kerosene to prepare a 0.1% (w/v) oil solution.
Ten adult German cockroaches (Blattella germanica, 5 males and 5 females) were released in a test container (diameter 8.75 cm, 7.5 cm high, the bottom face is made of 16 mesh metallic wire), the inner face on which butter was applied, and the container was set at the bottom of a test chamber (bottom face: 46 cm×46 cm, height: 70 cm).
Each 1.5 ml of the oil solution of the compound of the present invention (1) and (2) was sprayed using a spray gun at a pressure of 0.4 kg/cm^2 from 60 cm higher than the upper face of the container. Thirty seconds after the spraying, the container was pulled out from the chamber. Two minutes after spraying, the number of knocked-down […] was counted and a knock-down ratio was determined. A knocked-down ratio was calculated by the following equation.
Knocked-down ratio=(Number of knocked-down cockroaches/Number of test cockroaches)×100

Assay [2] deals with American cockroaches (Periplaneta americana). The assay can be described thus: Spray knock-down test with 0.1% (w/v) oil solution on American cockroaches (Test Example 1). Format: in vivo. Conditions: adult Periplaneta americana, 1.5 ml of 0.1% (w/v) oil solution sprayed. How it is done:
Zero point one (0.1) part of the compound of the present inventions (1) was dissolved in 10 parts of isopropyl alcohol and the solution was mixed with 89.9 parts of deodorized kerosene to prepare a 0.1% (w/v) oil solution.
Six adult American cockroaches (Periplaneta americana, 3 males and 3 females) were released in a test container (diameter 12.5 cm, 10 cm high, the bottom face is made of 16 mesh metallic wire), the inner face on which butter was applied, and the container was set at the bottom of a test chamber (bottom face: 46 cm×46 cm, height: 70 cm). Each 1.5 ml of the oil solution of the compound of the present invention (1) was sprayed using a spray gun at a pressure of 0.4 kg/cm^2 from 60 cm higher than the upper face of the container. Thirty seconds after the spraying, the container was pulled out from the chamber. After a prescribed time, the number of knocked-down cockroaches was counted and a knock-down ratio was determined (repeated twice). The knocked-down ratio was calculated by the following equation.
Knocked-down ratio (%) (Number of knocked-down cockroaches/Number of test cockroaches)×100

For the compound `C=CCC1=C(C)C(OC(=O)[C@@H]2[C@@H](C=C(C#N)SC)C2(C)C)CC1=O` (relative stereo) [compound of the present invention (2), 2-methyl-3-(2-propenyl)cyclopent-2-en-4-on-1-yl=(1R)-trans-3-[(1EZ)-2-cyano-2-(methylthio)ethenyl]-2,2-dimethylcyclopropanecarboxylate], the “Knock-down ratio (%) 2 minutes after spraying” value in assay [1] amounted to 100%.
Consider `C#CCC1=C(C)[C@@H](OC(=O)[C@@H]2[C@@H](/C=C(\C#N)SC)C2(C)C)CC1=O` [compound of the present invention (1), (S)-2-methyl-3-(2-propynyl)cyclopent-2-en-4-on-1-yl=(1R)-trans-3-[(1E)-2-cyano-2-(methylthio)ethenyl]-2,2-dimethylcyclopropane carboxylate], for which, in assay [1], the “Knock-down ratio (%) 2 minutes after spraying” value is listed as 100%. Also, the “Knock-down ratio (%) 5 minutes after spraying” value in assay [2] is reported as 100%.
